# From ChEMBL document CHEMBL1156829 (Proc Natl Acad Sci U S A, 2008)
# What was measured:
# Plasmodium falciparum [1] = assay: NOVARTIS: Inhibition of Plasmodium falciparum W2 (drug-resistant) proliferation in erythrocyte-based infection assay; format: functional, organism-based; conditions: Plasmodium falciparum, W2; read-out: EC50
# Plasmodium falciparum [2] = assay: NOVARTIS: Inhibition of Plasmodium falciparum 3D7 (drug-susceptible) proliferation in erythrocyte-based infection assay; format: functional, organism-based; conditions: Plasmodium falciparum, 3D7
# [3] = NOVARTIS: Cytotoxicity against human hepatocellular carcinoma cell line (Huh7); format: toxicity, cell-based, Huh-7; conditions: Huh7 cells (hepatocellular carcinoma cell line)
SMILES,EC50 (Plasmodium falciparum [1]),EC50 (Plasmodium falciparum [2]),CC50 [3]
COc1cc2nc(N3CCN(c4nc(N)c5cc(OC)c(OC)cc5n4)CC3)nc(N)c2cc1OC,257 nM,91.1 nM,14700 nM
Cn1nc(C(=O)N2CCCCCC2)c2c1CCC(NCC(C)(C)N1CCOCC1)C2 (configuration not stated),5.52 nM,22.5 nM,> 9560 nM
CCCCCCn1c2c(c(=N)c3ccccc31)CCC2,> 1120 nM,681 nM,> 10000 nM
Cc1cccc2c1[nH]c1nc(SCC(C)C)nnc12,873 nM,1480 nM,> 100000 nM
O=C(Nc1ccc2oc(-c3ccccc3F)nc2c1)c1ccc([N+](=O)[O-])o1,1260 nM,> 12500 nM,> 100000 nM
COc1ccc(CN2CCN(Cc3ccc(OC)c(C)c3C)C(CCO)C2)c(O)c1 (configuration not stated),319 nM,1650 nM,> 44200 nM
CCCN(C(=O)C(=O)Nc1ccc2nc3n(c(=O)c2c1)CCCCC3)c1ccc(OCC)cc1,50.1 nM,89.9 nM,> 100000 nM
COc1ccc(C2=C(Nc3ccc(Br)c(C)c3)c3ccccc3C2=O)cc1,202 nM,185 nM,> 100000 nM
CC(C)CC1=Nc2cc(C(=O)NCc3ccccc3)ccc2CN1Cc1cccnc1,26.7 nM,> 1250 nM,> 10000 nM
CCNC(=O)C1CCN(c2cccc3c2C(=O)N(C2CCCCCCC2)C3=O)CC1,1310 nM,1750 nM,> 100000 nM
CC(C)CNCc1cc(-c2ccc(F)cc2)ccc1O,10 nM,104 nM,58600 nM
Cc1cc(C(=O)Nc2cnn(Cc3ccc(Cl)cc3Cl)c2)no1,371 nM,620 nM,> 100000 nM
C[n+]1oc(C=Cc2ccccc2)cc1C=Cc1ccccc1,28.8 nM,68.8 nM,21200 nM
Cc1c(NC(=O)C2c3ccccc3C(=O)N3CCc4ccccc4C23)cccc1[N+](=O)[O-] (configuration not stated),1520 nM,4070 nM,> 100000 nM
COc1cc(C(=O)NC(c2ccccc2Cl)c2cc(Cl)c3cccnc3c2O)cc(OC)c1OC (configuration not stated),3470 nM,6150 nM,> 100000 nM
COc1ccc(NC(=O)N2CCN(C(=O)c3nc(-c4ccccc4)nc(C)c3C(=O)OC(C)C)CC2C)cc1 (configuration not stated),141 nM,633 nM,> 10000 nM
c1cc2cc3c(cc2c2cc4c(cc12)C[N+]1(CCCC1)C4)C[N+]1(CCCC1)C3,1060 nM,645 nM,> 100000 nM
COc1cc(Cl)c(C)cc1NC(=O)C1c2ccccc2C(=O)N(CC(C)C)C1c1cccs1 (configuration not stated),373 nM,578 nM,> 100000 nM
CN(C(=O)CCNC(=O)Cn1cnc2ccccc2c1=O)C1CCCCC1,> 636 nM,> 1250 nM,> 10000 nM
CCOc1ccc(C2C(=O)N(C3CCCCC3)CC(=O)N2Cc2ccc(F)cc2)cc1OC (configuration not stated),4150 nM,4560 nM,> 100000 nM
O=C(Nc1cc(Cl)ccc1O)c1cnn2c(C(F)(F)F)cc(-c3ccc(F)cc3)nc12,2910 nM,> 8740 nM,> 100000 nM
O=C(Cn1c2ccccc2c(=O)c2ccccc21)Nc1ccc(Cl)cc1C(=O)c1ccccc1,925 nM,817 nM,> 100000 nM
COc1ccc(CCNc2ncnc3c2[nH]c2ccccc23)cc1,401 nM,299 nM,24900 nM

SMILES,EC50 (Plasmodium falciparum [1]),EC50 (Plasmodium falciparum [2]),CC50 [3]
Clc1cccc(CCNC2CCN(CCc3ccccc3)CC2)c1,651 nM,170 nM,12400 nM
O=C(NCSC1=NCCS1)c1ccccc1,> 6030 nM,> 12500 nM,> 100000 nM
CCCCNC(=S)N(Cc1cccs1)Cc1cc2cc(C)ccc2[nH]c1=O,295 nM,1020 nM,> 10000 nM
COc1ccc(C=CC(=O)Nc2ccncc2)cc1OC,1070 nM,358 nM,> 100000 nM
CCOc1ccc(N(C(=O)C2COc3ccccc3O2)C(C(=O)NC2CCCCC2)c2cn(C)nc2C)cc1 (configuration not stated),614 nM,443 nM,> 100000 nM
COc1cccc(-n2sc3c(c2=S)-c2cc(OC)ccc2NC3(C)C)c1,1480 nM,> 991 nM,> 10000 nM
Cc1ccc(C(=O)Nc2ccc(-c3nc4cc5ccccc5cc4[nH]3)cc2)cc1[N+](=O)[O-],3980 nM,4300 nM,> 100000 nM
CCN1C=CC(=Cc2ccc3cc(C)ccc3[n+]2C)C=C1,140 nM,170 nM,> 58000 nM
CCOC(=O)c1sc(NC(=O)CSc2nnc(CNC(=O)COc3ccc(Cl)cc3)n2C)c(C(=O)OCC)c1C,> 601 nM,1080 nM,> 10000 nM
NS(=O)(=O)c1ccc(N/C=C/C(=O)c2ccc(Cl)s2)cc1,> 1250 nM,1830 nM,> 8690 nM
CC1=C(C(=O)Nc2ccc(C)cc2C)C(c2ccc([N+](=O)[O-])cc2)n2ncc(C(=O)Nc3ccc(F)cc3)c2N1 (configuration not stated),514 nM,585 nM,> 100000 nM
Cc1ccc(-c2c3c(nc4sc(C(=O)Nc5cccc(C)c5)c(N)c24)CCC3)cc1,82.7 nM,1010 nM,> 100000 nM
COc1ccc2nc3cc(Cl)ccc3c(NCCCN(CCCN)CCCCN)c2c1,22.3 nM,78.6 nM,> 10000 nM
CCN(CC)CCN1C(=O)c2ccccc2NC1c1ccc(Cl)cc1 (configuration not stated),455 nM,370 nM,53300 nM
CCCCCN(C(=O)c1ccc2ccccc2c1)C(CC)c1nc2ccccc2c(=O)n1-c1ccc(Cl)cc1C (configuration not stated),587 nM,961 nM,> 10000 nM
COCCOC(=O)C1=C(C)NC2=C(C(=O)CC(c3ccc(OC)c(OC)c3)C2)C1c1ccccc1Cl (configuration not stated),13.2 nM,50.4 nM,> 100000 nM
COc1ccc(S(=O)(=O)N=C2C=C(Nc3ccccc3OC)C(=O)c3ccccc32)cc1,154 nM,338 nM,20100 nM
O=c1c2c([nH]c3ccccc13)CCCC2,991 nM,628 nM,> 100000 nM
Cc1nc2c(c(C)nn2C)c(C)c1CCC(=O)N1CCCC1,< 15.8 nM,360 nM,> 6850 nM
O=C(NC1CCN(Cc2ccccc2)CC1)c1cc(-c2ccc(F)cc2)cc(-n2cnnn2)c1,126 nM,126 nM,45000 nM
CC(C)(C)OCCN(CC(O)CN(Cc1ccccc1)C(=O)NC(c1ccccc1)c1ccccc1)S(=O)(=O)c1ccccc1 (configuration not stated),< 26.4 nM,1100 nM,> 10000 nM
COCCN1Cc2cccc(C(=O)Nc3ccc4c(c3)OCCO4)c2C1=O,1390 nM,> 1450 nM,> 10000 nM
O=C(/C=C/c1ccccc1)c1c(-c2ccccc2)c2cc([N+](=O)[O-])ccc2[nH]c1=O,> 976 nM,> 1640 nM,> 10000 nM

SMILES,EC50 (Plasmodium falciparum [1]),EC50 (Plasmodium falciparum [2]),CC50 [3]
CCCN(CCC)C(=O)Cn1ccc(=N)c2ccccc21,671 nM,1200 nM,> 100000 nM
C=CCOC(=O)C1=C(C)N2CCSC2=C(C#N)C1c1ccco1 (configuration not stated),> 1250 nM,1210 nM,> 10000 nM
O=C(NC(=S)Nc1ccc([N+](=O)[O-])cc1Cl)c1ccco1,> 769 nM,> 1530 nM,> 10000 nM
COc1ccc(-c2c[n+](Cc3ccccc3Cl)c3n2CCC3)cc1,532 nM,578 nM,52500 nM
CCc1ccc(-n2nnc(C(=O)Nc3ccccc3Cl)c2C)cc1,77.5 nM,> 1680 nM,> 10000 nM
CCCc1ccc(C(=O)NC(=O)c2ccccc2O)cc1,325 nM,193 nM,16500 nM
CCCSc1nc(N)c2c3c(sc2n1)CN(CCC)CC3,1230 nM,1420 nM,> 100000 nM
CC(=O)N(C=C1Sc2ccccc2C1=O)c1ccc(C)cc1,1970 nM,10700 nM,> 100000 nM
Cc1nc(NC(=N)N)nc2c(C)cccc12,443 nM,301 nM,16400 nM
COc1ccc(OC)c(C(=O)c2oc3ccccc3c2NC(=O)CCl)c1,1380 nM,10200 nM,15500 nM
COc1cc(COc2cc(N)c(Cl)cc2C(=O)CCC2CCN(CCNS(C)(=O)=O)CC2)cc(OC)c1,< 8.52 nM,> 788 nM,> 13000 nM
O=C(O)c1c[nH]c2cc(N3CCCCCC3)c(F)cc2c1=O,> 12500 nM,> 9800 nM,> 100000 nM
CCCCCCCc1ccc(-c2nnc(-c3ccc([N+](=O)[O-])cc3)o2)cc1,> 459 nM,> 1250 nM,> 10000 nM
Cc1nc(N2CCC(C)CC2)c2c(C)c(C(=O)Nc3ccc(C(F)(F)F)cc3)sc2n1,562 nM,> 12500 nM,> 100000 nM
Cc1cccc(-c2cc(C(=O)NC3CCN(Cc4ccccc4)CC3)cc(-n3cnnn3)c2)c1,570 nM,372 nM,50100 nM
Cc1ccccc1C(=O)N(CC(=O)Nc1cc(C(C)(C)C)nn1-c1ccccc1Cl)C(C)C,649 nM,1090 nM,> 8810 nM
O=c1c2ccccc2nc(/C=C/c2ccc([N+](=O)[O-])o2)n1-c1ccc(Br)cc1,> 1640 nM,902 nM,> 10000 nM
CCCCCN(C(=O)c1ccc(C)cc1)C(C)c1nc2ccccc2c(=O)n1-c1ccccc1CC (configuration not stated),895 nM,> 1620 nM,> 10000 nM
Cc1ccc(CN2CCC(O)(c3ccc4oc(C(=O)NCCc5cccc(F)c5)cc4c3)CC2)cc1,3010 nM,4160 nM,43500 nM
CCc1ccc(C(Nc2cc(C)ccn2)c2ccc3cccnc3c2O)cc1 (configuration not stated),163 nM,1470 nM,> 100000 nM
NNc1nc(NCc2ccccc2)nc(N2CCOCC2)n1,89.4 nM,71.8 nM,> 10000 nM
CC(=O)Nc1ccc(S(=O)(=O)N(C)CC(=O)NN=Cc2ccncc2)cc1,1360 nM,> 5760 nM,> 100000 nM
CCCCc1nc(CN2CCC3(CC2)C(=O)N(CCc2ccccc2)C(=O)N3C)c[nH]1,4380 nM,> 12000 nM,> 100000 nM
